# Laboratory results reported in patent publication US9944721B2, “Polysialic acid and use for treatment of neurodegenerative and neuroinflammatory diseases” (RHEINISCHE FRIEDRICH-WILHELMS UNIVERSITÄT BONN, priority 2013, dated 2018).
# Legend:
# [1] = system: humanized Siglec-11 transgenic mice or littermate control mice; experiment: Laser-induced animal model of macular degeneration, intravitreal injection; type: in vivo
# Description: An animal model of macular degeneration was induced by laser technology. Experimental damage of the mouse retina using a laser is a well-accepted animal model for age-related macular degeneration. Laser coagulation and direct damage of Bruch's membrane rapidly lead to microglia and complement activation and induce vascular leakage. Fluorescence angiography is an established method to detect vascular leakage in the retina.
# Humanized Siglec-11 transgenic mice (Wang Y, 2009, dissertation, University Bonn, uniform resource name: urn:nbn:de:hbz:5N-18095) or littermate control mice were used in this experiment.
# Three argon laser coagulation spots were induced (125 mW, 100 ms, […], Viridis, Quantel Medical, France) in the retina of the mice. Directly afterwards the mice were injected intra-vitreally with PSA-20 (3 μg/per eye) or a PBS vehicle control.
# Retinal tissue was analyzed 48 hours after the laser lesion by immunohistochemistry. Therefore, whole mount immunostaining was performed with a polyclonal rabbit-anti-ionized calcium-binding adapter molecule 1 (Iba1) antibody followed by fluorescein (FITC)-conjugated secondary antibody directed against rabbit immunoglobulin (IgG). Confocal images of the inner plexiform layer from the retina were collected and the percentage of the activated amoeboid microglia in relation to the total Iba1-positive microglia was determined in and outside the laser lesion of the PSA-20 treated Siglec-11 and the control mice.
# To determine the inflammation mediated vascular leakage, fluorescein angiography was performed 48 hours after laser coagulation lesion of the retina. In detail, anesthetized animals were injected intraperitoneally with 0.1 ml 2.5% fluorescein in 0.9% sterile NaCl. Late stage angiography pictures were taken eleven minutes after fluorescein injection on a Spectralis HRA2 retina angiograph (Heidelberg Engineering) to visualize vessel leakage. Angiography pictures were exported from Heidelberg Eye Explorer Software as jpeg files. Pixel intensities of 6 regions of interest (roi) per picture were quantified with ImageJ and background fluorescence was subtracted.
# At 48 hours before angiography, three argon laser coagulation spots were induced (125 mW, 100 ms, 100 μm, Viridis, Quantel Medical, France) in the retina of the Siglec-11 transgenic or littermate control mice. Mice were injected intra-vitreally with PSA-20 (3 μg/per eye) or a PBS vehicle control. […] Statistically significant groups were determined by One-Way ANOVA and Student's t-test. […]
# Again, the laser damage of retinas was induced in the humanized Siglec-11 transgenic mice or littermate controls as described above. […] Single data points indicate individual eyes analyzed. Data were analyzed by ordinary one-way ANOVA followed by Tukey's multiple comparisons test. […]
# [2] = system: co-culture of human iPSdM1 microglia and iPS cell-derived neurons with amyloid-β1-42; experiment: Microglia-neuron co-culture with fibrillary amyloid-β1-42, 48 hours (neurite length); type: cell-based; settings: 48 hours co-culture with microglia and 1 μM fibrillary amyloid-β1-42; without PSA-20 0.64+/−0.03; FIG. 4G
# Method: Human induced pluripotent stem cell derived microglia (iPSdM) were obtained from iPS cells. iPSdM-1 line was used in this study generated from the iLB-C-35m-r1 clone (Bonn). iPSdM-1 (here named microglia or microglial cells) were culture in N2-medium consisting of DMEM/F12 culture medium (Gibco) supplemented with 1% N2 (Invitrogen), 0.48 mM L-glutamine (Gibco) and 100 μg/ml penicillin/streptomycin (Gibco). Cells were cultured with high density and split 1:5. After splitting, cells recovered and attached again to the new dishes.
# Human induced pluripotent stem (iPS) cells (Foreskin-1, WiCell) were used for generation of primitive neural stem cell (pNSC) and their differentiation into neurons according to a modified protocol, which was used to obtain primitive neural precursors from human embryonic stem cells. Briefly, iPS cells were cultured on feeder cells to form small colonies. […]
# Cells were fixed for 15 minutes with 4% paraformaldehyde (PFA), blocked and permeabilized for 60 minutes with a solution that contained bovine serum albumin (10% BSA) and normal goat serum (5% nGS) and 0.1% TritonX-100. […] Ten images were randomly collected from each experimental setup by confocal laser scanning microscopy (Fluoview 1000, Olympus) and total lengths of neuronal branches from β-tubulin-III stained neurites was determined done by the NIH ImageJ/NeuronJ software.
substance,measurement,setting,value
poly-(α(2→8)Neu5Ac)n [PSA-20],Microglial activation (activated amoeboid microglia to total Iba1-positive microglia),"[1]; Siglec-11 transgenic mice, 3 μg/per eye intravitreal, 48 hours after laser lesion, FIG. 7D",significantly reduced
same,vascular leakage (fluorescein angiography),"[1]; Siglec-11 transgenic mice, 3 μg/per eye intravitreal, 48 hours after laser, FIG. 7E",significantly reduced vascular leakage
same,microglial Iba1 immunoreactivity,"[1]; normal mice, 3 μg/per eye intravitreal, 48 hours after laser lesion",No effect
same,vascular leakage (fluorescein angiography),"[1]; repeat, at least 8 retinas per group, Siglec-11 transgenic mice, 48 hours, vehicle 117.8+/−7.8, FIG. 7G",84.07+/−8.2
same,relative neurite length,[2],0.82+/−0.03
